# Measured values as given in patent publication US6812228B2, “Benzoxazines for use in the treatment of parkinson's disease” (Warner-Lambert Company, priority 2000, dated 2004).
# Read-outs that look alike come from different tables or passages of the source.
# Columns and labels:
# [1] = target: T1, human muscarinic receptor subtype M1 (Homo sapiens, UniProt P11229); assay: Muscarinic receptor binding, displacement of [3H]-NMS, membranes from transfected CHO cells
# T1 sequence (P11229 1-460): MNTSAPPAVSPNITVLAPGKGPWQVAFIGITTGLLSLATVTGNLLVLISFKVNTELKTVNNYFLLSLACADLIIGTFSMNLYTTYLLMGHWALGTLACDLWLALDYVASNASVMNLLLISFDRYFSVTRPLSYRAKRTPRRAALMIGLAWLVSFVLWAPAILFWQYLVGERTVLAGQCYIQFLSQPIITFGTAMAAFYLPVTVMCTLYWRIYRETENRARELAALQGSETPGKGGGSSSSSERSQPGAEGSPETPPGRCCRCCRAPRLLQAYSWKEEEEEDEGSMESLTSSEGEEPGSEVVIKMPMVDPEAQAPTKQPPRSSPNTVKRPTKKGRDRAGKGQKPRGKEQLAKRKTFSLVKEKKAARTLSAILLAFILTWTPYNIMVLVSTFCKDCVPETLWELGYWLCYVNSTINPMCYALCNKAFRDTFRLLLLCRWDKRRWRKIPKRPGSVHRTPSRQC
# Procedure: (§1) The compounds were evaluated in standard assays used to measure muscarinic receptor binding, and they were compared with other benzoxazines described in Bioorganic & Medicinal Chemistry Letters 8, 1998:1991-1996, which is incorporated herein by reference. Specifically, the compounds were evaluated for their binding affinity toward five human muscarinic receptor subtypes (M1-M5) by the method of Dorje et al., J. Pharm. Exp. Ther. 1991;256:727-733, which is incorporated herein by reference. The binding was determined by measuring the displacement of [^3H]-NMS (N-methylscopolamine) binding using membranes from transfected Chinese hamster ovary (CHO) cells.
# [2] = target: T2, human muscarinic receptor subtype M2 (Homo sapiens, UniProt P08172); assay: as above
# T2 sequence (P08172 1-466): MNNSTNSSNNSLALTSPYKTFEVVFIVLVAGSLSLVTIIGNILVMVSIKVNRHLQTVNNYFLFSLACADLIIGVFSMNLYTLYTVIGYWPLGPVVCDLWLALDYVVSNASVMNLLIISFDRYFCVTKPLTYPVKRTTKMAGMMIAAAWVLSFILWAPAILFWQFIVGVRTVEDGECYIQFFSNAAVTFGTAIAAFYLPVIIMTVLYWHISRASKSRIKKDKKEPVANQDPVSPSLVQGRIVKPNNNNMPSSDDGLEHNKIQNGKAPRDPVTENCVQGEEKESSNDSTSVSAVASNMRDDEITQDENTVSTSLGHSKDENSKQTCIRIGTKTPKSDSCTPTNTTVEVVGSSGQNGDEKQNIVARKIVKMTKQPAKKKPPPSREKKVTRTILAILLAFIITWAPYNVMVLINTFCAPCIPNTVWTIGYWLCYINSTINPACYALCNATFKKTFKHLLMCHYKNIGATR
# Procedure: as §1
# [3] = target: human muscarinic receptor subtype M3 (Homo sapiens, UniProt P20309); assay: as above
# human muscarinic receptor subtype M3, sequence (P20309 whole entry): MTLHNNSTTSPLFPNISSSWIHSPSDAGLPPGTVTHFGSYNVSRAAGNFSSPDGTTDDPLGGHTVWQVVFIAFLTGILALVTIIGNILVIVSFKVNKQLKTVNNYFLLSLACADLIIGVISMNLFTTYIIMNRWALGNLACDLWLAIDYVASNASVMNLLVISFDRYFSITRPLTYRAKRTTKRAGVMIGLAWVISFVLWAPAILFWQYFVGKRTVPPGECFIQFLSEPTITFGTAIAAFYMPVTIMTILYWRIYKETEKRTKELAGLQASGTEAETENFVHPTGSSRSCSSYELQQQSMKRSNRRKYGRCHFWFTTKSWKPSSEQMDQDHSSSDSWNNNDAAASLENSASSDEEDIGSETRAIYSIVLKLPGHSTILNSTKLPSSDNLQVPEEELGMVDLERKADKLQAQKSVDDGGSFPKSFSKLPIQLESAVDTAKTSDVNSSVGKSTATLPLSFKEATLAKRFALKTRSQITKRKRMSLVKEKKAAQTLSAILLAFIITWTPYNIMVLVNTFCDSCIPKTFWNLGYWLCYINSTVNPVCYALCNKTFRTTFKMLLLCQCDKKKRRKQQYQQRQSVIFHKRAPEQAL
# Procedure: as §1
# [4] = target: T3, human muscarinic receptor subtype M4 (Homo sapiens, UniProt P08173); assay: as above; settings: for binds to the M4 receptor more than to M3 (selectivity): M4 versus M3; for bind to M4 more than some of the other subtypes (selectivity): M4 versus some of the other subtypes, upper figure (as much as)
# T3 sequence (P08173 1-479): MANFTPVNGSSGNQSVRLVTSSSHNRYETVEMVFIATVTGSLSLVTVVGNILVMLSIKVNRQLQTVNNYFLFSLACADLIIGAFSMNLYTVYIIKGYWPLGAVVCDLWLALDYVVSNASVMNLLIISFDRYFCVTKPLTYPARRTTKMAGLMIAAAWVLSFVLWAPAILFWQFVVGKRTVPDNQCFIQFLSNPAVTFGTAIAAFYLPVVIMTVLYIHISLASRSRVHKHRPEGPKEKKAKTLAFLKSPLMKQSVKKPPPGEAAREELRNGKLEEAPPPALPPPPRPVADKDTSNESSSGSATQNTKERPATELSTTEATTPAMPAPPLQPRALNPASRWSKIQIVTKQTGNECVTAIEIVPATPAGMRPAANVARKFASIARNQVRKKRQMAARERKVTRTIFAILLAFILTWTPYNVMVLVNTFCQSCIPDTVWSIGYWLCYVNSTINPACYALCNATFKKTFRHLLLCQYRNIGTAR
# Procedure: as §1
# [5] = target: T4, human muscarinic receptor subtype M5 (Homo sapiens, UniProt P08912); assay: as above
# T4 sequence (P08912 1-532): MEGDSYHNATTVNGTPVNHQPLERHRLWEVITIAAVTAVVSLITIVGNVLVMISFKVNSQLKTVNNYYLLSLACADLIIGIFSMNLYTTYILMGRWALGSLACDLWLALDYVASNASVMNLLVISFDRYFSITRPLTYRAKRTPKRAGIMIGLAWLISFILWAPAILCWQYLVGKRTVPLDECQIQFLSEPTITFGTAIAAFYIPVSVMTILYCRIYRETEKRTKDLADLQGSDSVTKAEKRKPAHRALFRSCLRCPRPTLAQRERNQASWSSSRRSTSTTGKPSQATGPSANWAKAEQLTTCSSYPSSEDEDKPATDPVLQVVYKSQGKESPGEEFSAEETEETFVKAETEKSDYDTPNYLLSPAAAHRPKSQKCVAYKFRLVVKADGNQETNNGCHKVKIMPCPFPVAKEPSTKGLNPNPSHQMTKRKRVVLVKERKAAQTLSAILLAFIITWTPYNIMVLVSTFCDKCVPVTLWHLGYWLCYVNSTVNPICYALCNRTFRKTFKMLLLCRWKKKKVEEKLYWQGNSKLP
# Procedure: as §1
# [6] = [3H]-NMS displacement, CHO cell membranes, tested two to four times, SEM <=10%, read-out: Muscarinic Binding Activity M1 (IC50)
# [7] = [3H]-NMS displacement, CHO cell membranes, tested two to four times, SEM <=10%, read-out: Muscarinic Binding Activity M2 (IC50)
# [8] = [3H]-NMS displacement, CHO cell membranes, tested two to four times, SEM <=10%, read-out: Muscarinic Binding Activity M3 (IC50)
# [9] = [3H]-NMS displacement, CHO cell membranes, tested two to four times, SEM <=10%, read-out: Muscarinic Binding Activity M4 (IC50)
# [10] = [3H]-NMS displacement, CHO cell membranes, tested two to four times, SEM <=10%, read-out: Muscarinic Binding Activity M5 (IC50)
"IC50 [1, 6] [nM]","IC50 [2, 7] [nM]","IC50 [3, 8] [nM]","IC50 [4, 9] [nM]","IC50 [5, 10] [nM]",melting point [°C],"binds to the M4 receptor more than to M1, M2, and M5 (selectivity) ([4]; M4 versus M1, M2 and M5)",binds to the M4 receptor more than to M3 (selectivity) [4],bind to M4 more than some of the other subtypes (selectivity) [4],SMILES,IC50 [1] [nM],IC50 [2] [nM],IC50 [3] [nM],IC50 [4] [nM],IC50 [5] [nM]
4660,2000,130,9,3660,191 to 193,,,,"CCCc1[nH]c2ccc3c(c2c1C(=O)OCC)CN1CCc2cc(OC)ccc2C1O3 (stereo not drawn) [Example 1, 9-Methoxy-2-propyl-11,12-dihydro-3H,6αH,13H-6-oxa-3,12α-diaza-benzo[a]cyclopent[h]anthracene-1-carboxylic acid ethyl ester]",,,,,
2000,2000,200,20,6000,,,,,"CCOC(=O)c1c(CC)[nH]c2ccc3c(c12)CN1CCc2cc(OC)ccc2C1O3 (stereo not drawn) [Prior Art Compound Et/Et/9-OMe/H, reference compound]",,,,,
3000,1000,500,30,6000,,,,,"CCOC(=O)c1c(C)[nH]c2ccc3c(c12)CN1CCc2cc(OC)ccc2C1O3 (stereo not drawn) [Prior Art Compound Et/Me/9-OMe/H, reference compound]",,,,,
800,550,190,6,13000,,,about 30 fold,about 800 fold,"CCCCc1[nH]c2ccc3c(c2c1C(=O)OCC)CN1CCc2cc(OC)ccc2C1O3 (stereo not drawn) [Example 5, 2-Butyl-9-methoxy-11,12-dihydro-3H,6aH,13H-6-oxa-3,12a-diaza-benzo[a]cyclopent[h]anthracene-1-carboxylic acid ethyl ester]",,,,,
50000,600,200,10,10000,170 to 172,,,,"CCCCCc1[nH]c2ccc3c(c2c1C(=O)OCC)CN1CCc2cc(OC)ccc2C1O3 (stereo not drawn) [Example 7, 9-Methoxy-2-pentyl-11,12-dihydro-3H,6aH,13H-6-oxa-3,12a-diaza-benzo[a]cyclopent[h]anthracene-1-carboxylic acid ethyl ester]",,,,,

# The remaining lines, values behind:
SMILES,"IC50 [1, 6] [nM]","IC50 [2, 7] [nM]","IC50 [3, 8] [nM]","IC50 [4, 9] [nM]","IC50 [5, 10] [nM]",melting point [°C],"binds to the M4 receptor more than to M1, M2, and M5 (selectivity) ([4]; M4 versus M1, M2 and M5)",binds to the M4 receptor more than to M3 (selectivity) [4],bind to M4 more than some of the other subtypes (selectivity) [4],IC50 [1] [nM],IC50 [2] [nM],IC50 [3] [nM],IC50 [4] [nM],IC50 [5] [nM]
"CCOC(=O)c1c(C)n(CC)c2ccc3c(c12)CN1CCc2cc(OC)ccc2C1O3 (stereo not drawn) [Prior Art Compound Et/Me/9-OMe/Et, reference compound]",,,,,,,,,,2000,400,500,50,3000
"CCCc1c(C(=O)OCC)c2c3c(ccc2n1C)OC1c2ccc(OC)cc2CCN1C3 (stereo not drawn) [Example 3, 9-Methoxy-3-methyl-2-propyl-11,12-dihydro-3H,6aH,13H-6-oxa-3,12a-diaza-benzo[a]cyclopent[h]anthracene-1-carboxylic acid ethyl ester]",3000,950,130,7,6000,150 to 151,,,,,,,,
"CCCc1c(C(=O)OCC)c2c3c(ccc2n1C)OC1c2ccc(SC)cc2CCN1C3 (stereo not drawn) [Example 2, 3-Methyl-9-methylsulfanyl-2-propyl-11,12-dihydro-3H,6aH,13H-6-oxa-3,12a-diaza-benzo[a]cyclopent[h]anthracene-1-carboxylic acid ethyl ester]",7500,7000,370,7,3000,139 to 143,about 1000 fold,about 52 fold,,,,,,
"CCCCc1[nH]c2ccc3c(c2c1C(=O)OCC)CN1CCc2cc(SC)ccc2C1O3 (stereo not drawn) [Example 6, 2-Butyl-9-methylsulfanyl-11,12-dihydro-3H,6aH,13H-6-oxa-3,12a-diaza-benzo[a]cyclopent[h]anthracene-1-carboxylic acid ethyl ester]",2000,4000,5000,10,2000,159 to 161,,,,,,,,
"CCCCCCc1[nH]c2ccc3c(c2c1C(=O)OCC)CN1CCc2cc(OC)ccc2C1O3 (stereo not drawn) [Example 8, 2-Hexyl-9-methoxy-11,12-dihydro-3H,6aH,13H-6-oxa-3,12a-diaza-benzo[a]cyclopent[h]anthracene-1-carboxylic acid ethyl ester]",2000,800,400,30,3000,157 to 160,,,,,,,,
"CCOC(=O)c1c(C)n(C)c2ccc3c(c12)CN1CCc2cc(OC)ccc2C1O3 (stereo not drawn) [Prior Art Compound Et/Me/9-OMe/Me, reference compound]",500,400,400,50,1000,,,,,,,,,
"CCOC(=O)c1c(CC)n(CC)c2ccc3c(c12)CN1CCc2cc(OC)ccc2C1O3 (stereo not drawn) [Prior Art Compound Et/Et/9-OMe/Et, reference compound]",,,,,,,,,,5000,1000,50,20,5000
"CCCc1[nH]c2ccc3c(c2c1C(=O)OCC)CN1CCc2cc(SC)ccc2C1O3 (stereo not drawn) [Example 4, 9-Methylsulfanyl-2-propyl-11,12-dihydro-3H,6aH,13H-6-oxa-3,12a-diaza-benzo[a]cyclopent[h]anthracene-1-carboxylic acid ethyl ester]",1400,2000,200,6,3500,185 to 186,,about 30 fold,about 800 fold,,,,,
